Several values for one entry are separate records, joined by “and”; a condition that tells them apart may be missing. Equal values may be shown once. Read-outs that look alike come from different tables or passages of the source.
Assays:
CA VI = target: T1, CA VI (Homo sapiens, UniProt P23280); test: Fluorescent thermal shift assay (FTSA), CA VI; format: binding; conditions: FTSA, pH 7.0, 37 °C; read-out: Compound Dissociation Constants Kd for CA VI
T1 construct: made in house

CA II = target: T2, CA II (Homo sapiens, UniProt P00918); test: Fluorescent thermal shift assay (FTSA), CA II; format: binding; conditions: pH 7.0, 37 °C, read-out: Compound Dissociation Constants Kd for CA II
T2 construct: made in house

CA I = target: T3, CA I (Homo sapiens, UniProt P00915); test: Fluorescent thermal shift assay (FTSA), CA I; format: binding
T3 construct: made in house

CA VII = target: T4, CA VII (Homo sapiens, UniProt P43166); test: Fluorescent thermal shift assay (FTSA), CA VII; format: binding
T4 construct: made in house

CA XIII = target: T5, CA XIII (Homo sapiens, UniProt Q8N1Q1); test: Fluorescent thermal shift assay (FTSA), CA XIII; format: binding; conditions: FTSA, pH 7.0, 37 °C; read-out: Compound Dissociation Constants Kd for CA XIII
T5 construct: made in house

CA XII = target: T6, CA XII (Homo sapiens, UniProt O43570); test: Fluorescent thermal shift assay (FTSA), CA XII; format: binding; conditions: FTSA, pH 7.0, 37 °C; read-out: Compound Dissociation Constants Kd for CA XII
T6 construct: made in house

[1] = FTSA, pH 7.0, 37 °C, read-out: Compound Dissociation Constants Kd for CA I
[2] = FTSA, pH 7.0, 37 °C, read-out: Compound Dissociation Constants Kd for CA VII

T4 sequence (P43166 whole entry): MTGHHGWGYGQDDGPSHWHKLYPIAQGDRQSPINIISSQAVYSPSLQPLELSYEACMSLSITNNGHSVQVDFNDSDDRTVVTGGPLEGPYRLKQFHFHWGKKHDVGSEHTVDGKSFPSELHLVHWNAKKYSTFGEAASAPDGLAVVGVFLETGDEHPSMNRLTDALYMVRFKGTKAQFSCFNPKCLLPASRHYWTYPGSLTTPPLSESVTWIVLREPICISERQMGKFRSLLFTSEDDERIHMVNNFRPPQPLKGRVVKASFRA
T3 sequence (P00915 whole entry): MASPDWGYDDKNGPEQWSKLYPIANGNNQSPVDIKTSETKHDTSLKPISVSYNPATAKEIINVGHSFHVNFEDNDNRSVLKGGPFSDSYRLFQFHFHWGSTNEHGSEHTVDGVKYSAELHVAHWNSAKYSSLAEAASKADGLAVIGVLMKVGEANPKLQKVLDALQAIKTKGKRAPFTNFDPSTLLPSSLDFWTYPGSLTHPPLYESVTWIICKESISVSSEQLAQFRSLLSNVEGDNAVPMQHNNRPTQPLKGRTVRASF
T1 sequence (P23280 18-308): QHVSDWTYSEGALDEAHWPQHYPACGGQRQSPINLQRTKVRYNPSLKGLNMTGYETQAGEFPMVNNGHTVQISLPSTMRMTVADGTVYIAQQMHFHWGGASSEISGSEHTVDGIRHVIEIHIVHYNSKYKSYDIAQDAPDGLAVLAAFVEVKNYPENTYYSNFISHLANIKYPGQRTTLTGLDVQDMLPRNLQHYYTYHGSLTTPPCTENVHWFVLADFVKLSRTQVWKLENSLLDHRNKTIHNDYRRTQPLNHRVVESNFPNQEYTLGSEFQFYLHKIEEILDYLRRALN
T6 sequence (O43570 30-289 limits assumed): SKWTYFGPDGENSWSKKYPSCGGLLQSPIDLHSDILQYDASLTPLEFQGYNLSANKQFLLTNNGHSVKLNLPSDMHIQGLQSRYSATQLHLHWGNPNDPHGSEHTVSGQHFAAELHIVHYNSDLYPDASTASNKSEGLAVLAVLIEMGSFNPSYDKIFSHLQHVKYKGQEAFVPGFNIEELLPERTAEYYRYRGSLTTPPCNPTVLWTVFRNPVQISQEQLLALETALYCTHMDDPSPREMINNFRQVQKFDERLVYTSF
T5 sequence (Q8N1Q1 whole entry): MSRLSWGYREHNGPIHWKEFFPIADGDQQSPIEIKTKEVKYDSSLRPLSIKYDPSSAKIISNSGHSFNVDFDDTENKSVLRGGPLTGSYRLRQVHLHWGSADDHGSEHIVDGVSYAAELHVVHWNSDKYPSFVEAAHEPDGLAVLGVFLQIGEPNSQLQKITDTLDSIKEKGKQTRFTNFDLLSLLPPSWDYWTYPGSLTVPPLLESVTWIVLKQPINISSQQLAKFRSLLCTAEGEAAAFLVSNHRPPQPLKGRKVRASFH

Kd (CA VI)	Kd (CA II)	Kd (CA I; [1])	Kd (CA VII; [2])	Kd (CA XIII)	Kd (CA XII)	Kd (CA I)	Kd (CA VII)	times more weakly bound to CA I than SA (CA I; ratio of Kd, FTSA)	melting point	selectivity: bound to CA I times stronger than to CA II (CA I; ratio of FTSA Kd)	selectivity: bound to CA I times stronger than to CA VI (CA I; ratio of FTSA Kd)	selectivity: bound to CA I times stronger than to CA VII (CA I; ratio of FTSA Kd)	selectivity: bound to CA I times stronger than to CA XII (CA I; ratio of FTSA Kd)	selectivity: bound to CA I times stronger than to CA XIII (CA I; ratio of FTSA Kd)	CA I binding in the presence (32) versus absence (34) of the diazo group (CA I; comparison of Kd of 32 and 34)	SMILES
14 µM	–	–	–	–	–	–	–	–	–	–	–	–	–	–	–	NS(=O)(=O)c1ccccc1 [BSA, benzenesulfonamide]
62.5 µM	12.5 µM	40 µM	22.2 µM	33.3 µM	9.5 µM	–	–	–	–	–	–	–	–	–	–	NS(=O)(=O)c1ccc(NCCC(=O)O)cc1 [Compound 3, 3-[(4-Sulfamoylphenyl)amino]propanoic Acid]
> 200 µM	40 µM	> 200 µM	> 200 µM	> 200 µM	> 200 µM	–	–	–	–	–	–	–	–	–	–	CCSC(=NS(=O)(=O)c1ccc(NCCC(=O)O)cc1)SCC [Compound 4, 3-[(4-{[Bis(ethylthio)methylene]sulfamoyl}phenyl)amino]propanoic Acid]
12.5 µM	0.83 µM and 0.833 µM	3.85 µM	1.54 µM	8.33 µM	5.56 µM	–	–	–	–	–	–	–	–	–	–	NS(=O)(=O)c1ccc(N2CCC(=O)NC2=O)cc1 [Compound 5, 4-(2,4-Dioxo-1,3-diazinan-1-yl)benzene-1-sulfonamide]
8.3 µM	0.67 µM and 0.667 µM	1.11 µM	1.61 µM	2.86 µM	5.56 µM	–	–	–	–	–	–	–	–	–	–	NS(=O)(=O)c1ccc(N2CCC(=O)NC2=S)cc1 [Compound 6, 4-(4-Oxo-2-sulfanylidene-1,3-diazinan-1-yl)benzene-1-sulfonamide]
71.4 µM	9.1 µM	–	–	58.8 µM	33.3 µM	35.7 µM	35.7 µM	–	–	–	–	–	–	–	–	COC(=O)CCNc1ccc(S(N)(=O)=O)cc1 [Compound 7, Methyl-3-[(4-sulfamoylphenyl)amino]propanoate]
62.5 µM	10.5 µM	55.6 µM	28.6 µM	76.9 µM	33.3 µM	–	–	–	–	–	–	–	–	–	–	NNC(=O)CCNc1ccc(S(N)(=O)=O)cc1 [Compound 8, 4-{[(2-Hydrazinecarbonyl)ethyl]amino}benzene-1-sulfonamide]
50 µM	10 µM	58.8 µM	28.6 µM	76.9 µM	33.3 µM	–	–	–	–	–	–	–	–	–	–	NC(=S)NNC(=O)CCNc1ccc(S(N)(=O)=O)cc1 [Compound 9, N-(Carbamothioylamino)-3-[(4-sulfamoylphenyl)amino]propanamide]
140 µM	20 µM	170 µM	100 µM	83 µM	130 µM	–	–	1.7 times	–	–	–	–	–	–	–	Nc1nnc(CCNc2ccc(S(N)(=O)=O)cc2)s1 [Compound 10, 4-{[2-(5-Amino-1,3,4-thiadiazol-2-yl)ethyl]amino}benzene-1-sulfonamide]
71.4 µM	7.14 µM	45.5 µM	28.6 µM	50 µM	33.3 µM	–	–	–	216 to 217 °C	–	–	–	–	–	–	CC(C)=NNC(=O)CCNc1ccc(S(N)(=O)=O)cc1 [Compound 11, 4-{[2-(N'-Propan-2-ylidenehydrazinecarbonyl)ethyl]amino}benzene-1-sulfonamide]
25 µM	1.85 µM	15.4 µM	12.5 µM	5.56 µM	33.3 µM	–	–	–	185 to 186 °C	–	–	–	–	–	–	CC(=NNC(=O)CCNc1ccc(S(N)(=O)=O)cc1)c1ccccc1 [Compound 12, 4-{(2-[N'-(1-Phenylethylidene)hydrazinecarbonyl]ethyl}amino]benzene-1-sulfonamide]
25 µM	1.43 µM	11.5 µM	16.7 µM	4.35 µM	50 µM	–	–	–	170 to 171 °C	–	–	–	–	–	–	NS(=O)(=O)c1ccc(NCCC(=O)NN=C(c2ccccc2)c2ccccc2)cc1 [Compound 13, 4-({2-[N'-(Diphenylmethylidene)hydrazinecarbonyl]ethyl}amino)benzene-1-sulfonamide]
25 µM	2 µM	16.7 µM	11.1 µM	6.25 µM	28.6 µM	–	–	–	–	–	–	–	–	–	–	Cc1ccc(C)n1NC(=O)CCNc1ccc(S(N)(=O)=O)cc1 [Compound 19]
7.1 µM	4 µM	28.6 µM	12.5 µM	18.5 µM	1.85 µM	–	–	–	–	–	–	–	–	–	–	NS(=O)(=O)c1ccc(NCCC(=O)NNC(=O)Nc2ccccc2)cc1 [Compound 20, N-[(Phenylcarbamoyl)amino]-3-[(4-sulfamoylphenyl)amino]propanamide]
8.3 µM	4 µM	9.09 µM	5.56 µM	9.09 µM	5.56 µM	–	–	–	–	–	–	–	–	–	–	NS(=O)(=O)c1ccc(NCCC(=O)NNC(=S)Nc2ccccc2)cc1 [Compound 21, N-[(Phenylcarbamothioyl)amino]-3-[(4-sulfamoylphenil)amino]propanamide]
33.3 µM	4.55 µM	12.5 µM	4.55 µM	26.3 µM	5.88 µM	–	–	–	–	–	–	–	–	–	–	NS(=O)(=O)c1ccc(NCCc2n[nH]c(=S)o2)cc1 [Compound 24, 4-{[2-(5-Sulfanylidene-4,5-dihydro-1,3,4-oxadiazol-2-yl)ethyl]amino}benzene-1-sulfonamide]
28.6 µM	1.18 µM	5.88 µM	5.6 µM	3.33 µM	10.5 µM	–	–	–	–	–	–	–	–	–	–	CCSc1nnc(CCNc2ccc(S(N)(=O)=O)cc2)o1 [Compound 25, 4-({2-[5-(Ethylsulfanyl)-1,3,4-oxadiazol-2-yl]ethyl}amino)benzene-1-sulfonamide]
13.3 µM	0.181 µM	0.1 µM	0.769 µM	0.4 µM	2.7 µM	–	–	–	–	–	–	–	–	–	–	CN(C)/N=N/c1ccc(S(N)(=O)=O)cc1 [Compound 26]
13.3 µM	0.0714 µM	0.0133 µM	0.2 µM	0.1 µM	0.588 µM	–	–	–	–	–	–	–	–	–	–	CCN(CC)/N=N/c1ccc(S(N)(=O)=O)cc1 [Compound 27]
13.3 µM	0.133 µM	0.0333 µM	0.454 µM	0.167 µM	1.81 µM	–	–	–	–	–	–	–	–	–	–	NS(=O)(=O)c1ccc(/N=N/N2CCCC2)cc1 [Compound 28]
11.8 µM	0.1 µM	0.029 µM	0.4 µM	0.222 µM	3.3 µM	–	–	–	–	–	–	–	–	–	–	NS(=O)(=O)c1ccc(/N=N/N2CCOCC2)cc1 [Compound 29]
10 µM	0.0625 µM	0.00667 µM	0.12 µM	0.0667 µM	0.77 µM	–	–	–	–	9.4 times	1500 times	18 times	115 times	10 times	–	NS(=O)(=O)c1ccc(/N=N/N2CCCCC2)cc1 [Compound 30]
3.2 µM	0.0667 µM	0.0333 µM	0.286 µM	1.4 µM	2 µM	–	–	–	–	–	–	–	–	–	about six-fold stronger	NS(=O)(=O)c1ccc(/N=N/SCCO)cc1 [Compound 32]
8.3 µM	0.278 µM	0.5 µM	1 µM	2.86 µM	6.25 µM	–	–	–	–	–	–	–	–	–	–	NCCS/N=N/c1ccc(S(N)(=O)=O)cc1 [Compound 33]

— paper PMC6271771, “4-Amino-substituted Benzenesulfonamides as Inhibitors of Human Carbonic Anhydrases” (Molecules, 2014)
